Data taken from patent US20110305673A1, “COMPOSITIONS AND METHODS FOR TISSUE REPAIR” (The University of Vermont and State Agriculture College, priority 2008, published 2011).

What was measured:
cardiac progenitor cells [1] = experiment: Signal transduction inhibitor study on CPC number (48 hrs); format: cell-based, rat; settings: for cell number ratio to control cell number: CPCs in MSC CdM; for cell number ratio to control cell number / effect on number/growth of CPCs in MSC conditioned media: 48 hrs; for effect on number/growth of CPCs in MSC conditioned media: inhibitor 10 μM
Description: Serum-free conditioned media was prepared as described previously (Kiel et al., Cell 2005; 121:1109-1121). cardiac progenitor cells and cardiac fibroblasts were plated at 500 cells/cm^2 and cultured in their growth medium. Three days after plating the medium was removed, the wells were washed twice with PBS, and the cells were then exposed to conditioned media or to fresh serum-free medium (α-MEM). For time course proliferation studies, the conditioned media and serum-free medium were changed every 2 days. […] All inhibitors were from Calbiochem (EMD Chemicals, San Diego, Calif.) and were dissolved in dimethyl sulfoxide (DMSO). Cardiac progenitor cells were cultured in conditioned media with the inhibitors or with the equivalent volume of DMSO as a control for 48 hrs. In the protection study, 3 days after plating, the medium was replaced with either the conditioned media or serum-free medium and the cells were exposed to hypoxia in a specialized incubator (1% oxygen) for 48 hours. The hypoxia incubator was a model that measured both CO2 and O2 (Thermo Electron, Form a Series II, model 3130). Oxygen was maintained at 1% by the injection of nitrogen gas and was monitored continuously. Cell numbers were quantified by the fluorescent labeling of nucleic acids (CyQuant dye; Molecular Probes, Carlsbad, Calif.) and with a microplate fluorescence reader (FLX800; Bio-Tek Instruments Inc., Winooski, Vt.) set to 480 nm excitation and 520 nm emission. Each experiment was repeated a minimum of 3 times.

cardiac progenitor cells [2] = experiment: CPC protection study under hypoxia (1% oxygen, 48 hours); format: cell-based, rat; settings: inhibitor 10 μM
Description: Serum-free conditioned media was prepared as described previously (Kiel et al., Cell 2005; 121:1109-1121). cardiac progenitor cells and cardiac fibroblasts were plated at 500 cells/cm^2 and cultured in their growth medium. Three days after plating the medium was removed, the wells were washed twice with PBS, and the cells were then exposed to conditioned media or to fresh serum-free medium (α-MEM). For time course proliferation studies, the conditioned media and serum-free medium were changed every 2 days. In the signal transduction inhibitor studies the following pharmacological inhibitors, were used (10 micromolar): AG490, an inhibitor of Jak2/STAT3 pathway; Stattic, a specific inhibitor of STAT3 phosphorylation at Tyr^705; LY294002, inhibitor of phosphatidylinositol 3-kinase (PI3K)/Akt pathway; and PD98059, extracellular signal-regulated kinase (ERK) inhibitor. […] The hypoxia incubator was a model that measured both CO2 and O2 (Thermo Electron, Form a Series II, model 3130). Oxygen was maintained at 1% by the injection of nitrogen gas and was monitored continuously. Cell numbers were quantified by the fluorescent labeling of nucleic acids (CyQuant dye; Molecular Probes, Carlsbad, Calif.) and with a microplate fluorescence reader (FLX800; Bio-Tek Instruments Inc., Winooski, Vt.) set to 480 nm excitation and 520 nm emission. […]

CD133dMSCs = experiment: Puromycin kill curve; format: cell-based, human; settings: after 3 days
Description: Based on observations that CD133dMSCs increased their secretion of SDF-1 in culture following exposure to hypoxia and mRNA expression in vivo after injection into stroke penumbra, the role of SDF-1 in mediating the benefits of CD133dMSC CdM was explored using lentiviral shRNA knockdown of SDF-1 with puromycin-selectable vectors. In preliminary studies, kill curves were performed with transduced CD133dMSCs incubated in puromycin-containing culture medium to remove cells that were not transduced by lentivirus. […] Following lentiviral transduction of expanded CD133dMSCs from a single donor with a scrambled shRNA vector, 2 different shRNAs vectors against SDF-1, or a control selectable GFP vector, ELISAs and FACS assays were performed to characterize the cells.

N#C/C(=C/c1ccc(O)c(O)c1)C(=O)NCc1ccccc1 [AG490]
cell number ratio to control cell number (cardiac progenitor cells [1]; 1 μM): 96.3±0.9%
cell number ratio to control cell number (cardiac progenitor cells [1]; 5 μM): 89.5±0.9%
effect on CPC numbers in growth medium (cardiac progenitor cells [1]; 10 μM, 48 hours): not AG490 significantly diminished
effect on number of CPCs in conditioned media from fibroblasts (cardiac progenitor cells [1]; 10 μM, 48 hours): inhibitory effect
effect on number of CPCs in conditioned media from p75MSCs (cardiac progenitor cells [1]; 10 μM, 48 hours): inhibitory effect
effect on number of CPCs in serum-free medium (cardiac progenitor cells [1]; 10 μM, 48 hours): significantly reduced
cell number ratio to control cell number (cardiac progenitor cells [1]; 10 μM): 43.4±2.4%
effect on protective effects of conditioned media during hypoxia (cardiac progenitor cells [2]): inhibited the protective effects

COc1cccc(-c2cc(=O)c3ccccc3o2)c1N [PD98059]
effect on number/growth of CPCs in MSC conditioned media (cardiac progenitor cells [1]): did not block

COc1ccc(C[C@H](N)C(=O)N[C@H]2[C@@H](O)[C@H](n3cnc4c(N(C)C)ncnc43)O[C@@H]2CO)cc1 [puromycin]
concentration sufficient to remove all untransduced CD133dMSCs (CD133dMSCs): 2 µg/mL

O=[N+]([O-])c1ccc2c(c1)S(=O)(=O)C=C2 [Stattic]
effect on number/growth of CPCs in MSC conditioned media (cardiac progenitor cells [1]): completely blocked
effect on protective effects of conditioned media during hypoxia (cardiac progenitor cells [2]): blocked the protective effects
